According to ChEMBL document CHEMBL1133958, “Derivatives of (2R,3R,4S)-2-aminomethylpyrrolidine-3,4-diol are selective alpha-mannosidase inhibitors” (Bioorg Med Chem Lett, 2001):
Active and inactive are the calls of the source. The calls are words filed in the database; no cut-off is given here.

Columns and labels:
[1] = molecular target: T1, Alpha-glucosidase (Oryza sativa Japonica Group) (UniProt Q9LGC6); experiment: Percentage inhibition of Alpha-glucosidase from Rice (maltase) at 1 mM; […]
T1 sequence (whole entry): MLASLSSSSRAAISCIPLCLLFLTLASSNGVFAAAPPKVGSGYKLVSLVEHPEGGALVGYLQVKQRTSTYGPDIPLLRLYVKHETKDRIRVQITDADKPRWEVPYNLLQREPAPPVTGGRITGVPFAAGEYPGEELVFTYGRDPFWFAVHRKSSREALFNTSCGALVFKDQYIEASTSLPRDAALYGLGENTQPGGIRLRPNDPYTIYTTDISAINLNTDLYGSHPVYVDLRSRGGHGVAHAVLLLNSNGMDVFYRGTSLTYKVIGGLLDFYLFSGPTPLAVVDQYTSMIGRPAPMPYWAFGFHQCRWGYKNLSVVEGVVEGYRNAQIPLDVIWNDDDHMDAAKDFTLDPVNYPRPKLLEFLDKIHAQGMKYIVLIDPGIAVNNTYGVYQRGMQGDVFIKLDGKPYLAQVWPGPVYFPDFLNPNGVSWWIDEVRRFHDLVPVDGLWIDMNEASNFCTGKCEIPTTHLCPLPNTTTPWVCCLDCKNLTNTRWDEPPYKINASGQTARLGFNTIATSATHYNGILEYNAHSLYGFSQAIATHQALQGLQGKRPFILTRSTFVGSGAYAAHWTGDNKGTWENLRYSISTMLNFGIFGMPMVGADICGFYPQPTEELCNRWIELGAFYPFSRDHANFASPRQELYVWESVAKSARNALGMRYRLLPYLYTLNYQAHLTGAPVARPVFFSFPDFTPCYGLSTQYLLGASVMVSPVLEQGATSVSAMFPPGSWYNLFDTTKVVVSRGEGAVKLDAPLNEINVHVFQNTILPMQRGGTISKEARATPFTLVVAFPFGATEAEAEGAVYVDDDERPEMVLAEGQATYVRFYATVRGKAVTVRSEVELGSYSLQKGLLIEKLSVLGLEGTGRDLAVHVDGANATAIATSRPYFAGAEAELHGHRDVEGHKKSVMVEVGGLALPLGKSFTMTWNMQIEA

Saccharomyces cerevisiae [2] = experiment: Percentage inhibition of Alpha-glucosidase from Baker yeast (isomaltase) at 1 mM
Saccharomyces cerevisiae [3] = experiment: Percentage inhibition of Alpha-glucosidase from Yeast (maltase) at 1 mM; […]
[4] = molecular target: Glucoamylase (Aspergillus niger) (UniProt P69328); experiment: Percentage inhibition of Alpha-glucosidase from Aspergillus niger (amyloglucosidase) at 1 mM
[5] = molecular target: Beta-glucosidase A (Caldicellulosiruptor saccharolyticus) (UniProt P10482); experiment: Percentage inhibition of Beta-Glucosidase from Caldocellum saccharol. at 1 mM
[6] = molecular target: T2, Glucoamylase 1 (Rhizopus oryzae) (UniProt P07683); experiment: Percentage inhibition of Alpha-glucosidase from Rhizopus mold (amyloglucosidase) at 1 mM concentration; details: Rhizopus arrhizus
T2 sequence (whole entry): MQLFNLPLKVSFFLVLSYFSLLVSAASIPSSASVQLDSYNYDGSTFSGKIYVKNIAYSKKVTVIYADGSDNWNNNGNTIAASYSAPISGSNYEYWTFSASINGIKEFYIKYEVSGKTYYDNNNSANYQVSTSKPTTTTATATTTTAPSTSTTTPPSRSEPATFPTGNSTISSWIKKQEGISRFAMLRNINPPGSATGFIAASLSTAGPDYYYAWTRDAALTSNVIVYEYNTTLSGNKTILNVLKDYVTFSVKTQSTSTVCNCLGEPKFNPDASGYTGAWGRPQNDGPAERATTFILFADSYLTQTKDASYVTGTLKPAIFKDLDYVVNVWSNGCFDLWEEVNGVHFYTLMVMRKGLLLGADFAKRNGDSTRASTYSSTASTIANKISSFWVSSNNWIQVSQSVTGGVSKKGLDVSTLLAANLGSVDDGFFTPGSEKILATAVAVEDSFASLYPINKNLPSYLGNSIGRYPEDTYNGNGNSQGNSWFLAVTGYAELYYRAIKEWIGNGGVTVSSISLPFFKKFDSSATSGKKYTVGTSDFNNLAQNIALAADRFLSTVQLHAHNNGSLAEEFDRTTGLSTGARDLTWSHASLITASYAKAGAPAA

[7] = molecular target: Beta-galactosidase (Escherichia coli K-12) (UniProt P00722); experiment: Percentage inhibition of Beta-galactosidase from Escherichia coli at 1 mM concentration
Beta-galactosidase [8] = molecular target: T3, Beta-galactosidase (Aspergillus niger, UniProt P29853); experiment: Inhibitory activity towards Beta-galactosidase from Aspergillus niger
T3 sequence (P29853 whole entry): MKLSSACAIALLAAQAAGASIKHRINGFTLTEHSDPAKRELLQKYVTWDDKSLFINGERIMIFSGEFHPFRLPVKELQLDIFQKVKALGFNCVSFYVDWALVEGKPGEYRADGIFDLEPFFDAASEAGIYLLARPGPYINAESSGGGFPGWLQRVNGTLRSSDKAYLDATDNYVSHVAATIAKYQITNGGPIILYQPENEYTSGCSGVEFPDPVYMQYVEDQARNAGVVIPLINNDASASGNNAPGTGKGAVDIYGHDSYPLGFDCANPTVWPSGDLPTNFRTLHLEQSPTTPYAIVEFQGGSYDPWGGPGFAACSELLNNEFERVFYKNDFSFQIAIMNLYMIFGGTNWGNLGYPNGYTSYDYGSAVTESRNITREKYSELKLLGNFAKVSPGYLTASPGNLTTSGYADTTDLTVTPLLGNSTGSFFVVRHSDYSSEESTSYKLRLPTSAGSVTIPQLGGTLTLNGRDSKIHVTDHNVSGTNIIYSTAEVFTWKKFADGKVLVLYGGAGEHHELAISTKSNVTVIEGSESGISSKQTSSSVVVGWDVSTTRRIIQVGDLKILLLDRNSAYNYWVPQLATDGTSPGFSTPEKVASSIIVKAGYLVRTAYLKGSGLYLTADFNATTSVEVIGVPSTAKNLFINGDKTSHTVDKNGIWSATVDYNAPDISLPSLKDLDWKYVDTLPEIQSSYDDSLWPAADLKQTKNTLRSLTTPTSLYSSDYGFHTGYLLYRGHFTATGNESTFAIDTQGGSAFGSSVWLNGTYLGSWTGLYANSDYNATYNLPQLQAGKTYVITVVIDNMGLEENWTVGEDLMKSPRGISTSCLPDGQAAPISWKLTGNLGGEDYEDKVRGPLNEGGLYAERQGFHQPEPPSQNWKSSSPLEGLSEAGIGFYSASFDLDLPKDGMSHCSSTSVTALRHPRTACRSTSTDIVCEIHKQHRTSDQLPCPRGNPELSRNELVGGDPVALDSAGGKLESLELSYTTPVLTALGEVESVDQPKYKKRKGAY

[9] = Inhibitory activity towards Beta-galactosidase from Aspergillus oryzae
[10] = Percentage inhibition of Beta-galactosidase from Aspergillus oryzae at 1 mM
[11] = molecular target: T4, Beta-galactosidase (Bos taurus) (UniProt Q58D55); experiment: Percentage inhibition of Beta-galactosidase from Bovine liver at 1 mM concentration
T4 sequence (whole entry): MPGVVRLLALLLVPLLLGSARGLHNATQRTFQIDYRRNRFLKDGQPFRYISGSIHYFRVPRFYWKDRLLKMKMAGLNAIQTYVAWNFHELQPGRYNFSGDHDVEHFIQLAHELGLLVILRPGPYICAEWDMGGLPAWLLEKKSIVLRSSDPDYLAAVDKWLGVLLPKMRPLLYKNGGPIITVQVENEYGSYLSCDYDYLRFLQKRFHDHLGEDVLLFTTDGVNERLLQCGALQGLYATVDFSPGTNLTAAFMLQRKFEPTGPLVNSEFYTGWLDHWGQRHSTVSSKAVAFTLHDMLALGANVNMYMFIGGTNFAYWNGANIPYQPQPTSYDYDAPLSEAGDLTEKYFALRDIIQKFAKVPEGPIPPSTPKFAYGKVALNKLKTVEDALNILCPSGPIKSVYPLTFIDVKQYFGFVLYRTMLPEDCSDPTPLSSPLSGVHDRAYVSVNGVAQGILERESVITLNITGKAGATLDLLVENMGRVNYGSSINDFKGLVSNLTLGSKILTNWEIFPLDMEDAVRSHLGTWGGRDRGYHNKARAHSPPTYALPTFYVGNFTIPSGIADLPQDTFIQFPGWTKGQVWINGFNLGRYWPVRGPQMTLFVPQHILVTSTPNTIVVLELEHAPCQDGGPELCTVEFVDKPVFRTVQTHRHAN

[12] = molecular target: T5, Beta-galactosidase (Aspergillus niger) (UniProt P29853); experiment: Percentage inhibition of Beta-galactosidase from Aspergillus niger at 1 mM concentration
T5 sequence (whole entry): T3 sequence (P29853 whole entry)

Saccharomyces cerevisiae [13] = experiment: Percentage inhibition of Alpha-glucosidase from Yeast (maltase) at 1 mM
[14] = molecular target: Glucoamylase (Aspergillus niger) (UniProt P69328); experiment: Percentage inhibition of Alpha-glucosidase from Aspergillus niger (amyloglucosidase) at 1 mM; No inhibition
[15] = molecular target: T2, Glucoamylase 1 (Rhizopus oryzae); experiment: Percentage inhibition of Alpha-glucosidase from Rhizopus mold (amyloglucosidase) at 1 mM concentration; No inhibition; details: Rhizopus arrhizus
[16] = molecular target: T1, Alpha-glucosidase (Oryza sativa Japonica Group); experiment: Percentage inhibition of Alpha-glucosidase from Rice (maltase) at 1 mM
[17] = molecular target: T4, Beta-galactosidase (Bos taurus); experiment: Percentage inhibition of Beta-galactosidase from Bovine liver at 1 mM; No inhibition
[18] = test system: Alpha-mannosidase (Prunus dulcis); experiment: Percentage inhibition of Alpha-mannosidase from Almond at 1 mM
[19] = Percentage inhibition of Beta-galactosidase from Jack bean at 1 mM concentration; details: Canavalia ensiformis
Beta-glucosidase A = Beta-glucosidase A (Caldicellulosiruptor saccharolyticus, UniProt P10482); experiment: Inhibitory activity towards Beta-Glucosidase from Caldocellum saccharol.
[20] = Percentage inhibition of Beta-galactosidase from Aspergillus oryzae at 1 mM; No inhibition
Beta-galactosidase [21] = molecular target: T6, Beta-galactosidase (Bos taurus, UniProt Q58D55); experiment: Inhibitory activity towards Beta-galactosidase from Bovine liver
T6 sequence (Q58D55 whole entry): T4 sequence (whole entry)

[22] = molecular target: Beta-glucosidase A (Caldicellulosiruptor saccharolyticus) (UniProt P10482); experiment: Percentage inhibition of Beta-Glucosidase from Caldocellum saccharol. at 1 mM; No inhibition

Sequence of Glucoamylase (Aspergillus niger) (P69328 whole entry): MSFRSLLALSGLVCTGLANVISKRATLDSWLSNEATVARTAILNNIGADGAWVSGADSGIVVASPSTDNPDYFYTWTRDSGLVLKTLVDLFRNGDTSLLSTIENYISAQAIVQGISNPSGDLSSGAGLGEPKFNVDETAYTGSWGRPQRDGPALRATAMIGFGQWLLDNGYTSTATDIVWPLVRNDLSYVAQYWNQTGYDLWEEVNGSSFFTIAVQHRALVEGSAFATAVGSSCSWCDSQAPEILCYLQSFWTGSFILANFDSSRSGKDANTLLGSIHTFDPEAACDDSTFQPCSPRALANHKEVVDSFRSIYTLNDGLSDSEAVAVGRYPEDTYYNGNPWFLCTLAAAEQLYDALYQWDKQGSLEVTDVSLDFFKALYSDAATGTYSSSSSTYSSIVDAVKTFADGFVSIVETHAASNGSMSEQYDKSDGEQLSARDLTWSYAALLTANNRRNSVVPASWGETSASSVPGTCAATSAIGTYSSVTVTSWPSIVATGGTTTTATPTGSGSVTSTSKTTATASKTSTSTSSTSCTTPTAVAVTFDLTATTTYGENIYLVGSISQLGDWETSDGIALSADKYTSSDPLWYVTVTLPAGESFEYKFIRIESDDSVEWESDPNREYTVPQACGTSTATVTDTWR
Sequence of Beta-glucosidase A (Caldicellulosiruptor saccharolyticus) (P10482 whole entry): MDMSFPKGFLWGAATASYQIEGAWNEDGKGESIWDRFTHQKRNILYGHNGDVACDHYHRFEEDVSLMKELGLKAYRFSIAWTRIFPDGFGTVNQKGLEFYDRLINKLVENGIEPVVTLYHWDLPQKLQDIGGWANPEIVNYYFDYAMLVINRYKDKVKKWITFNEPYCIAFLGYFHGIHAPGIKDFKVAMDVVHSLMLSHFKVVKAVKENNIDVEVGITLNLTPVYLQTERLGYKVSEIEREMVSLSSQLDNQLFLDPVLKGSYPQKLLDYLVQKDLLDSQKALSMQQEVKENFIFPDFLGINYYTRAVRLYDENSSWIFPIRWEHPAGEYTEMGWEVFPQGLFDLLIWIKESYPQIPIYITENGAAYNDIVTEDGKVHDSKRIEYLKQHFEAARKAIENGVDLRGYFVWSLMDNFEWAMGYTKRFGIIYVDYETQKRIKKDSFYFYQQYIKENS
Sequence of Beta-galactosidase (Escherichia coli K-12) (P00722 whole entry): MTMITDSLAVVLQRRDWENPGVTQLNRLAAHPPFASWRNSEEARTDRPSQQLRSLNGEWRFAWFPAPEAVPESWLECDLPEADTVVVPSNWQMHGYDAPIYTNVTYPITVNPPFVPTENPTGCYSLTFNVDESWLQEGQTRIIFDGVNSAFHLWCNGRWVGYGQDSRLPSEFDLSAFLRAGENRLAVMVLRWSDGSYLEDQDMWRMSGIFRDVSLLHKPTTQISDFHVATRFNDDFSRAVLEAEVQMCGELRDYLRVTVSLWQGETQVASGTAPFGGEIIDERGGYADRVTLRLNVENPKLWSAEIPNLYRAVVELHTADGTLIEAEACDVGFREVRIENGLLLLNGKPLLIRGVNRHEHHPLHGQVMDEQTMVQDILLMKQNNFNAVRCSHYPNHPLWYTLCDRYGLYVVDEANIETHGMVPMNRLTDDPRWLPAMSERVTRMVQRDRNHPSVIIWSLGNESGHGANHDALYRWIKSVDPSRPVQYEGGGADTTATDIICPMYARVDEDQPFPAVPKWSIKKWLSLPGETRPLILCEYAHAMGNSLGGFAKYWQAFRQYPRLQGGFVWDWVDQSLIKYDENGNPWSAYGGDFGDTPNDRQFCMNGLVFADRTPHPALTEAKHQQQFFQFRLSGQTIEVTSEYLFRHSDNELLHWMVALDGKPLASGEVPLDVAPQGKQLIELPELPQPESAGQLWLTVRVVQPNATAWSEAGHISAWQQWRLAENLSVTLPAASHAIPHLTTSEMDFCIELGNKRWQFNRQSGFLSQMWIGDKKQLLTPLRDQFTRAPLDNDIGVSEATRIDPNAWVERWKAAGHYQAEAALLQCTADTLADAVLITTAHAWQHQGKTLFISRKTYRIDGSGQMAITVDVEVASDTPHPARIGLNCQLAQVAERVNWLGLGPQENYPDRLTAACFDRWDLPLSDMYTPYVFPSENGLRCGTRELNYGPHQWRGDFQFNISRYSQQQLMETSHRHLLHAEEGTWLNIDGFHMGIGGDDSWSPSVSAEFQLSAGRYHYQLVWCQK
Sequence of Beta-glucosidase A (P10482 whole entry): as the sequence (P10482 whole entry) above

inhibition [1] | inhibition (Saccharomyces cerevisiae [2]) | inhibition (Saccharomyces cerevisiae [3]) | inhibition [4] | inhibition [5] | inhibition [6] | inhibition [7] | IC50 [9] | inhibition [10] | inhibition [11] | inhibition [12] | inhibition (Saccharomyces cerevisiae [13]) | inhibition [14] | inhibition [15] | inhibition [18] | Structure (SMILES) | also measured
inactive | 28% | inactive | 21% | 90% | 40% | 48% | 75 µM | 80% | 32% | 91% |  |  |  |  | OC(O)CC1NCC(O)C1O (stereo not given) | IC50 (Beta-galactosidase [8]): 140 µM; Ki (Beta-galactosidase [8]): 200 µM; Ki [9]: 75 µM
 |  |  |  | 93% |  | 92% |  | 60% |  | 24% | 84% | inactive | inactive | 51% | NCC1NCC(O)C1O (stereo not given) | inhibition [16]: 98%; inhibition [17]: inactive; inhibition [19]: 76%
inactive | 46% |  |  | 72% |  | 25% |  |  | 84% | 29% | 28% | inactive | inactive | 48% | CC(NCC1NCC(O)C1O)C(O)(c1ccccc1)c1ccccc1 (stereo not given) | IC50 (Beta-glucosidase A): 320 µM; inhibition [20]: inactive; IC50 (Beta-galactosidase [21]): 140 µM; Ki (Beta-galactosidase [21]): 21 µM
inactive | 32% | inactive | 24% |  | 47% | 41% | 790 µM | 53% | 25% | 39% |  |  |  |  | O[C@@H]1CNC[C@@H]1O | inhibition [22]: inactive
